Assay [1] relates to Stenotrophomonas maltophilia ATCC 13637. Nature of the assay: Broth-microdilution test and subsequent plating on agar, Gram-negative bacteria. As to conditions: 2 h contact at 37° C., CFU count after 24 h. The assay is classed as cell-based. The protocol: (§1) For each bacterial strain, 3-5 morphologically similar colonies were drawn from fresh cultures, inoculated in Brain Hearth Infusion broth liquid medium and incubated at the temperature of 37° C. under shaking at 225 r.p.m. for 3-4 h. Subsequently, the bacterial suspension was centrifuged at 1000 g for 20 min and the thus obtained pellet was resuspended in phosphate buffer 10 mM. Turbidity was measured in a spectrophotometer with absorbance at 600 nm, equivalent in the range 0.08-0.13 to a concentration of about 10^8 CFU/ml. The bacterial suspension was diluted 1:100 in phosphate buffer 10 mM, and within 30 min 50 microliters of such bacterial suspension (10^6 CFU/ml) were inoculated in each well of the microtiter plate, to obtain a final bacterial concentration of about 5×10^5 CFU/ml.
(§2) Several peptides were tested for their ability to inhibit bacterial growth in liquid culture. Fifty microliters of peptide at a concentration comprised between about 0.2 mM and 50 mM were added in 96-well U-bottom plates containing liquid growth medium and one of the following bacteria: Escherichia coli ATCC 25922, P. aeruginosa ATCC 27853, Stenotrophomonas maltophilia ATCC 13637. After 2 hour incubation at 37° C., bacteria were transferred on a solid medium. As a growth control, bacterial cultures were cultured in the absence of peptides.
(§3) The bacterial suspension was put in contact for two hours with different concentrations of the peptide at the temperature of 37° C. After incubation, 20 μl were drawn from the wells of each dilution and seeded on solid medium, agar McConkey. The inoculum was evenly distributed on the agarized medium by means of a sterile disposable loop. After incubation for 24 h at the temperature of 37° C., counting of the bacterial colonies (CFU) was performed.

For a further assay, the system named is S. aureus ATCC 25923. As to the kind of experiment: Broth-microdilution test and subsequent plating on agar, Gram-positive bacteria. It is filed as cell-based, Staphylococcus aureus. As to conditions: meticillin-sensitive, 2 h contact at 37° C., CFU count after 24 h. Here is the method:
as §1, with “30 min,” for “30 min”
(§4) Several synthetic peptides were tested for their ability to inhibit bacterial growth. Fifty microliters of peptide at a concentration comprised between about 0.2 mM and about 50 mM were added to 96-well U-bottom plates containing phosphate buffer and one of the following bacteria: S. aureus ATCC 25923, meticillin-resistant S. aureus ATCC 43300. After 2 hour incubation at 37° C., bacteria were transferred on a solid medium. As a control, the bacterial cultures were cultured in the absence of peptide.
(§5) The bacterial suspension was put in contact for two hours with different concentrations of the peptide at the temperature of 37° C. After incubation, 20 μl were drawn from the wells of each dilution and seeded on solid medium, Columbia agar supplemented with 5% bovine red blood cells for Gram-positive bacteria. The inoculum was evenly distributed on the agarized medium by means of a sterile disposable loop. After incubation for 24 hours at the temperature of 37° C., counting of the bacterial colonies (CFU) was performed.

For assay [2], the system named is meticillin-resistant S. aureus ATCC 43300. Described as above. The following applies: 2 h contact at 37° C., CFU count after 24 h. It is filed as cell-based, Staphylococcus aureus. The protocol: as §1, with “30 min,” for “30 min”
as §4, §5

The next assay deals with E. coli ML-35pYC. As to the kind of experiment: Membrane permeabilization assay (CENTA / ONPG kinetics). The assay is classed as cell-based, Escherichia coli. As to conditions: peptide 12.5 μg/ml, logistic 4-parameter fit, read up to 240 min. The protocol:
The strain ML-35pYC of E. coli was used to assay the kinetics of membrane permeabilization performed by the peptides of the invention. This bacterial strain expresses resistance to ampicillin, constitutive expression of cytoplasmic beta-galactosidase, and is engineered with a plasmid for the synthesis of a periplasmic beta-lactamase. Sixty microliters (60 μl) of bacterial suspension of strain ML-35pYC of E. coli were added to 60 μl of a 15 mM solution of ONPG or 1.5 mM of CENTA in phosphate buffer. Subsequently, 120 μl of the test peptides were added to obtain a final concentration of 12.5 μg/ml. The kinetics of the reaction was evaluated by recording the value of absorbance at […] and 405 nm, for ONPG and CENTA respectively, every 10 min up to a maximum of 240 min.
By “fitting” the experimental points with the logistic 4-parameter curve, it was possible to determine the inflexion point, that is the point where the curve changes direction, relative to the 3 test peptides. No inflexion point was observed during the assay with CENTA (inflexion point higher than 500 min).

Assay [3] relates to Pseudomonas aeruginosa ATCC 27853. It is filed as cell-based. Here is the method: as §1, §2, §3
In assay [4] the test system is Escherichia coli ATCC 25922. It is filed as cell-based. As to conditions: for LD90 E. coli ATCC 25922: 2 h contact at 37° C., CFU count after 24 h. The protocol: as §1, §2, §3

In brackets after ≈: the same amount, converted by molar mass. Several values for one entry are separate records, joined by “and”; a condition that tells them apart may be missing. Identical values can stand only once. Like-named read-outs stand apart in the source and are kept apart here. Some results are limits rather than exact numbers.

For `CC[C@H](C)[C@@H]1NC(=O)[C@H](CCCCN)NC(=O)[C@H](C)NC(=O)[C@@H](NC(=O)[C@H](CCCCN)NC(=O)[C@@H](N)Cc2c[nH]cn2)CSSC[C@@H](C(=O)N[C@@H](C)C(=O)O)NC(=O)[C@H](Cc2ccc(O)cc2)NC(=O)[C@H](CCCCN)NC(=O)[C@H](C(C)C)NC(=O)[C@H](Cc2c[nH]cn2)NC(=O)[C@H](C(C)C)NC(=O)CNC(=O)[C@H](CCCNC(=N)N)NC(=O)[C@H](Cc2c[nH]c3ccccc23)NC(=O)[C@H](CCCCN)NC1=O` (relative stereo) [Peptide P2041, HIS*LYS*CYS*ALA*LYS*ILE*LYS*TRP*ARG*GLY*VAL*HIS*VAL*LYS*TYR*CYS*ALA], in assay [1], the “LD90 S. maltophilia ATCC 13637” value was 2.67 µM. The “LD90 S. aureus ATCC 25923” value with S. aureus ATCC 25923 is 1.42 µM; in the assay with S. aureus ATCC 25923 (listed as 2041), 1.42 μM and 2.89 μg/ml. Also, the “LD90 MRSA ATCC 43300” value in assay [2] was 0.85 µM; in assay [2] (listed as 2041), 0.85 μM and 1.72 μg/ml. Moreover, the “Inflexion point CENTA” value in the assay with E. coli ML-35pYC (CENTA substrate (periplasmic beta-lactamase)) was more than 500 min. The “Inflexion point ONPG” value in the assay with E. coli ML-35pYC (ONPG substrate (cytoplasmic beta-galactosidase)) was determined as 16.08 min. For the same molecule, the “LD90 P. aeruginosa ATCC 27853” value in assay [3] (2 h contact at 37° C., CFU count after 24 h) was 2.14 µM. Further, the “MBC P. aeruginosa ATCC 27853” value in assay [3] (ATCC 27853) was 2.08 µg/mL (≈ 1.03 µM). Besides, the “LD90 E. coli ATCC 25922” value in assay [4] is 0.83 µM; in assay [4] (listed as 2041) it was 1.57 μg/ml and 0.83 μM. Moreover, the “MBC E. coli ATCC 25922” value in assay [4] (ATCC 25922) stood at 3.05 µg/mL (≈ 1.51 µM).

These data come from US10421782B2, “Cyclic cationic peptides with antimicrobial activity” (I.C.F. S.R.L., priority 2012, dated 2019).
